Reference: patent US20210188817A1, “OPHTHALMIC COMPOSITIONS AND METHODS FOR THE TREATMENT OF EYE DISORDERS AND SKIN DISEASES” (Cellix Bio Private Limited, priority 2018, published 2021)

Tests used:
[1] = system: P. acnes, Staphylococcus aureus (S. aureus), and Staphylococcus epidermidis (S. epidermidis); conditions: twofold serial dilutions 0.24 to 500 μg ml-1, 72, 24, 48 hours for P. acnes, OD600
Source text: (§1) ANTI-MICROBIAL PROPERTIES OF CLX-SYN-G162B-C02 AND BRIMONIDINE MALEATE: To compare dose-response effects of CLX-SYN-G162B-C02 [brimonidine eicosapentaenoate salt], compound of present invention and brimonidine maleate [referred as brimonidine], comparative example on the growth of bacteria that are present in the skin flora, P. acnes, Staphylococcus aureus (S. aureus), and Staphylococcus epidermidis (S. epidermidis) were co-cultured with either agent at various concentrations for 72, 24, and 48 hours, respectively.
(§2) Bacterial growth was evaluated by measuring absorbance at 600 nm. The length of cultivation period was determined based on the growth speed of the bacteria. Both, CLX-SYN-G162B-C02 and brimonidine were tested at concentrations of twofold serial dilutions from 0.24 to 500 μg ml-1.

[2] = system: P. acnes; conditions: 72 hours co-culture; compared with S. aureus and S. epidermidis
Source text: as §1, §2

[3] = Description: SINGLE DOSE OCULAR PHARMACOKINETIC STUDY OF CLX-162 FORMULATION IN MALE NEW ZEALAND WHITE RABBITS: The purpose of this study was to determine the ocular pharmacokinetics of CLX-162, Brimonidine R-(+)-lipoate when administered to male New Zealand white rabbits by topical ocular route.
Aqueous humor samples were collected at pre-determined time points (0.25, 0.5, 1, 2, 4, 8 and 12 h from both eyes) and stored at −70° C. until analysis. Brimonidine was quantified in aqueous humor samples of New Zealand White rabbits, using a specific sensitive LC-MS/MS fit for purpose analytical method.
Brimonidine Pharmacokinetic parameters in aqueous humor of New Zealand white rabbits: […]

[4] = brimonidine in aqueous humor, 50 μL topical ocular, each eye, New Zealand white rabbits

Compound	minimal inhibitory concentration (MIC) [1]	half maximal effective concentration on P. acnes growth [2]	AUC profile ([3]; aqueous humor, ocular administration, comparator not stated)	AUCinf [3, 4] [ng·h/mL]	AUClast [3, 4] [ng·h/mL]	Cmax [3, 4] [ng/mL]	MRTlast [3, 4] [min]	T1/2 [3, 4] [min]	Tmax [3, 4] [min]	Time to maximal aqueous humor concentration ([3]; topical ocular) [h]	Brimonidine levels detectable in the aqueous humor, time post dose ([3]; topical ocular, sampling 0.25-12 h)
Brimonidine Eicosapentaenoate [CLX-SYN-G162B-C02]	had shown to prevent bacterial growth	lowest among the bacteria tested	–	–	–	–	–	–	–	–	–
brimonidine maleate [reference compound]	no MIC	–	–	–	–	–	–	–	–	–	–
Brc1c(NC2=NCCN2)ccc2nccnc12.O=C(O)CCCC[C@@H]1CCSS1 [CLX-162, Brimonidine R-(+)-lipoate]	–	–	better AUC profile	1953	1875	1073	75.6	49.2	30	≤ 0.5	up to 4 h
